From ChEMBL document CHEMBL1155772, “Peroxide bond-dependent antiplasmodial specificity of artemisinin and OZ277 (RBx11160)” (Antimicrob Agents Chemother, 2007)
≈ marks a conversion by molar mass, not a printed value. Calls of active or inactive are those of the source. The rule behind the calls is not given here.

Experiments:
Babesia divergens [1] = test: Antimicrobial activity against Babesia divergens 4201; assay type: functional, organism-based
Babesia divergens [2] = test: Antimicrobial activity against Babesia divergens 1903B; assay type: functional, organism-based
Trypanosoma cruzi = test: Antitrypanosomal activity against Trypanosoma cruzi Tulahuen C4; assay type: functional, organism-based
Giardia intestinalis [3] = test: Antimicrobial activity against Giardia duodenalis G1; assay type: functional, organism-based
Plasmodium falciparum [4] = test: Antiplasmodial activity against Plasmodium falciparum NF54; assay type: functional, organism-based
Neospora caninum = test: Antimicrobial activity against Neospora caninum up to 1 ug/ml; assay type: functional, organism-based
[5] = tested on: Trypanosoma brucei rhodesiense; test: Antitrypanosomal activity against Trypanosoma brucei rhodesiense STIB900; assay type: functional, organism-based
[6] = Inhibition of Plasmodium falciparum ATP6
Leishmania donovani [7] = test: Antileishmanial activity against Leishmania donovani MHOM-ET-67/L82 amastigotes by axenic assay; assay type: functional, organism-based
Giardia intestinalis [8] = test: Antimicrobial activity against Giardia duodenalis WB; assay type: functional, organism-based
Plasmodium falciparum [9] = test: Antiplasmodial activity against Plasmodium falciparum K1; assay type: functional, organism-based
Toxoplasma gondii = test: Antimicrobial activity against Toxoplasma gondii in normal human foreskin fibroblasts; assay type: functional, organism-based
Leishmania major = test: Antileishmanial activity against Leishmania major amastigotes; assay type: functional, organism-based
Leishmania donovani [10] = test: Antileishmanial activity against Leishmania donovani promastigotes; assay type: functional, organism-based
Pneumocystis carinii = test: Antimicrobial activity against Pneumocystis carinii at 0.14 ug/ml in feeder layer cells; assay type: functional

Structure (SMILES) | IC50 (Babesia divergens [1]) [µg/mL] | IC50 (Babesia divergens [2]) [µg/mL] | IC50 (Trypanosoma cruzi) [µg/mL] | IC50 (Giardia intestinalis [3]) [µg/mL] | IC50 (Plasmodium falciparum [4]) [ng/mL] | Activity (Neospora caninum) | IC50 [5] [µg/mL] | IC50 [6] [µM] | IC50 (Leishmania donovani [7]) [µg/mL] | IC50 (Giardia intestinalis [8]) [µg/mL] | IC50 (Plasmodium falciparum [9]) [µg/mL] | IC50 (Toxoplasma gondii) [µg/mL] | IC50 (Leishmania major) [µg/mL] | IC50 (Leishmania donovani [10]) [µg/mL] | inhibition at 0.14 µg/mL (Pneumocystis carinii) [%]
O=C1C(O)=C([C@H]2CC[C@H](c3ccc(Cl)cc3)CC2)C(=O)c2ccccc21 [ATOVAQUONE] | 0.0087 (≈ 0.0237 µM) | 0.0091 (≈ 0.0248 µM) | – | – | – | – | – | – | – | – | – | – | – | – | –
CC(C)(N)CNC(=O)C[C@H]1CC[C@]2(CC1)OO[C@]1(O2)C2CC3CC(C2)CC1C3 [OZ277] | > 10 | > 10 | 9.5 (≈ 24.2 µM) | 49 (≈ 125 µM) | 0.91 (≈ 0.00232 µM) | inactive | 0.56 (≈ 1.43 µM) | 7.7 | 24 (≈ 61.1 µM) | 41 (≈ 104 µM) | – | – | – | – | –
O=C(Cn1ccnc1[N+](=O)[O-])NCc1ccccc1 [BENZNIDAZOLE] | – | – | 0.14 (≈ 0.538 µM) | – | – | – | – | – | – | – | – | – | – | – | –
CC(C)(N)CNC(=O)CC1CC[C@]2(CC1)OC[C@]1(O2)C2CC3CC(C2)CC1C3 (stereo partly specified) | 7.5 (≈ 19.2 µM) | 6.7 (≈ 17.2 µM) | 13 (≈ 33.3 µM) | 18 (≈ 46.1 µM) | 4900 (≈ 12.5 µM) | inactive | 0.77 (≈ 1.97 µM) | – | 20 (≈ 51.2 µM) | 38 (≈ 97.3 µM) | 2.5 (≈ 6.4 µM) | – | – | – | –
CCCSc1ccc2[nH]c(NC(=O)OC)nc2c1 [ALBENDAZOLE] | – | – | – | 0.018 (≈ 0.0678 µM) | – | – | – | – | – | 0.019 (≈ 0.0716 µM) | – | – | – | – | –
C[C@@H]1CC[C@H]2[C@@H](C)C(=O)O[C@@H]3O[C@@]4(C)CC[C@@H]1[C@]32O4 [DEOXYARTEMISININ] | > 10 | > 10 | > 30 | 28 (≈ 105 µM) | > 10000 | inactive | 34 (≈ 128 µM) | – | > 30 | 91 (≈ 342 µM) | > 10 | – | – | – | –
C[C@@H]1CC[C@H]2[C@@H](C)C(=O)O[C@@H]3O[C@@]4(C)CC[C@@H]1[C@]32OO4 [ARTEMISININ] | > 10 | > 10 | > 30 | 49 (≈ 174 µM) | 4 (≈ 0.0142 µM) | inactive | 25 (≈ 88.5 µM) | 0.079 | 8.8 (≈ 31.2 µM) | 65 (≈ 230 µM) | 0.002 (≈ 0.00708 µM) | 2.3 (≈ 8.15 µM) | 8 (≈ 28.3 µM) | 8 (≈ 28.3 µM) | 55
CCCCCCCCCCCCCCCCOP(=O)([O-])OCC[N+](C)(C)C [MILTEFOSINE] | – | – | – | – | – | – | – | – | 0.2 (≈ 0.491 µM) | – | – | – | – | – | –
